{
  "source": "the NIST ThermoML archive (doi:10.1016/j.fluid.2008.11.001)",
  "key": {"[1]": {"settings": "298.15 K; 101 kPa; Liquid; Vibrating tube method"}, "[2]": {"test": "refractive index (Na D-line) (dimensionless)", "settings": "298.15 K; 101.33 kPa; Liquid; refractometer"}, "[3]": {"test": "refractive index (Na D-line) (dimensionless); xn = mol fraction of the nth substance listed", "settings": "298.15 K, 101 kPa, Liquid, refractometer"}, "[4]": {"test": "xn = mol fraction of the nth substance listed", "settings": "298.15 K, 101 kPa, Liquid, Vibrating tube method"}},
  "note": "± gives the expanded uncertainty stated by the source.",
  "data": [
    {"smiles": "CC(C)CC(C)(C)C", "note": "[2,2,4-trimethylpentane]", "values": [
      {"measurement": "mass density", "setting": "[1]", "value": "688.18 ± 0.15", "unit": "kg/m3"},
      {"measurement": "refractive index", "setting": "[2]", "value": "1.38898 ± 0.00014"}
    ]},
    {"smiles": "COC(=O)OC", "note": "[dimethyl carbonate] + CCO", "values": [
      {"measurement": "refractive index", "setting": "[3]; x1 = 0.051", "value": "1.36039 ± 0.00014"},
      {"measurement": "refractive index", "setting": "[3]; x1 = 0.1", "value": "1.3606 ± 0.00014"},
      {"measurement": "refractive index", "setting": "[3]; x1 = 0.1999", "value": "1.36122 ± 0.00014"},
      {"measurement": "refractive index", "setting": "[3]; x1 = 0.2998", "value": "1.36186 ± 0.00014"},
      {"measurement": "refractive index", "setting": "[3]; x1 = 0.4005", "value": "1.36241 ± 0.00014"},
      {"measurement": "refractive index", "setting": "[3]; x1 = 0.5008", "value": "1.36301 ± 0.00014"},
      {"measurement": "refractive index", "setting": "[3]; x1 = 0.6011", "value": "1.36375 ± 0.00014"},
      {"measurement": "refractive index", "setting": "[3]; x1 = 0.6993", "value": "1.36439 ± 0.00014"},
      {"measurement": "refractive index", "setting": "[3]; x1 = 0.8002", "value": "1.36504 ± 0.00014"},
      {"measurement": "refractive index", "setting": "[3]; x1 = 0.9008", "value": "1.36576 ± 0.00014"},
      {"measurement": "refractive index", "setting": "[3]; x1 = 0.9514", "value": "1.36614 ± 0.00014"},
      {"measurement": "refractive index", "setting": "[3]; x1 = 1", "value": "1.36654 ± 0.00014"},
      {"measurement": "mass density", "setting": "[4]; x1 = 0.051", "value": "805.05 ± 0.11", "unit": "kg/m3"},
      {"measurement": "mass density", "setting": "[4]; x1 = 0.1", "value": "823.15 ± 0.11", "unit": "kg/m3"},
      {"measurement": "mass density", "setting": "[4]; x1 = 0.1999", "value": "857.92 ± 0.11", "unit": "kg/m3"},
      {"measurement": "mass density", "setting": "[4]; x1 = 0.2998", "value": "889.9 ± 0.12", "unit": "kg/m3"},
      {"measurement": "mass density", "setting": "[4]; x1 = 0.4005", "value": "919.86 ± 0.13", "unit": "kg/m3"},
      {"measurement": "mass density", "setting": "[4]; x1 = 0.5008", "value": "947.72 ± 0.15", "unit": "kg/m3"},
      {"measurement": "mass density", "setting": "[4]; x1 = 0.6011", "value": "973.66 ± 0.11", "unit": "kg/m3"},
      {"measurement": "mass density", "setting": "[4]; x1 = 0.6993", "value": "997.55 ± 0.08", "unit": "kg/m3"},
      {"measurement": "mass density", "setting": "[4]; x1 = 0.8002", "value": "1020.67 ± 0.07", "unit": "kg/m3"},
      {"measurement": "mass density", "setting": "[4]; x1 = 0.9008", "value": "1042.49 ± 0.06", "unit": "kg/m3"},
      {"measurement": "mass density", "setting": "[4]; x1 = 0.9514", "value": "1053.11 ± 0.06", "unit": "kg/m3"},
      {"measurement": "mass density", "setting": "[4]; x1 = 1", "value": "1063.04 ± 0.06", "unit": "kg/m3"}
    ]},
    {"smiles": "COC(=O)OC", "note": "[dimethyl carbonate]", "values": [
      {"measurement": "mass density", "setting": "[1]", "value": "1063.04 ± 0.06", "unit": "kg/m3"},
      {"measurement": "refractive index", "setting": "[2]", "value": "1.36654 ± 0.00014"}
    ]},
    {"smiles": "COC(=O)OC", "note": "[dimethyl carbonate] + CC(C)CC(C)(C)C", "values": [
      {"measurement": "refractive index", "setting": "[3]; x1 = 0.0508", "value": "1.38814 ± 0.00014"},
      {"measurement": "refractive index", "setting": "[3]; x1 = 0.1017", "value": "1.38716 ± 0.00014"},
      {"measurement": "refractive index", "setting": "[3]; x1 = 0.1995", "value": "1.38504 ± 0.00014"},
      {"measurement": "refractive index", "setting": "[3]; x1 = 0.3007", "value": "1.38275 ± 0.00014"},
      {"measurement": "refractive index", "setting": "[3]; x1 = 0.4002", "value": "1.38062 ± 0.00014"},
      {"measurement": "refractive index", "setting": "[3]; x1 = 0.5002", "value": "1.37889 ± 0.00014"},
      {"measurement": "refractive index", "setting": "[3]; x1 = 0.5996", "value": "1.37642 ± 0.00014"},
      {"measurement": "refractive index", "setting": "[3]; x1 = 0.7005", "value": "1.37408 ± 0.00014"},
      {"measurement": "refractive index", "setting": "[3]; x1 = 0.8002", "value": "1.37109 ± 0.00014"},
      {"measurement": "refractive index", "setting": "[3]; x1 = 0.9011", "value": "1.36879 ± 0.00014"},
      {"measurement": "refractive index", "setting": "[3]; x1 = 0.9504", "value": "1.36722 ± 0.00014"},
      {"measurement": "refractive index", "setting": "[3]; x1 = 1", "value": "1.36654 ± 0.00014"},
      {"measurement": "mass density", "setting": "[4]; x1 = 0.0508", "value": "697.25 ± 0.15", "unit": "kg/m3"},
      {"measurement": "mass density", "setting": "[4]; x1 = 0.1017", "value": "706.78 ± 0.15", "unit": "kg/m3"},
      {"measurement": "mass density", "setting": "[4]; x1 = 0.1995", "value": "727.06 ± 0.15", "unit": "kg/m3"},
      {"measurement": "mass density", "setting": "[4]; x1 = 0.3007", "value": "751.06 ± 0.15", "unit": "kg/m3"},
      {"measurement": "mass density", "setting": "[4]; x1 = 0.4002", "value": "778.05 ± 0.17", "unit": "kg/m3"},
      {"measurement": "mass density", "setting": "[4]; x1 = 0.5002", "value": "809.37 ± 0.2", "unit": "kg/m3"},
      {"measurement": "mass density", "setting": "[4]; x1 = 0.5996", "value": "845.17 ± 0.18", "unit": "kg/m3"},
      {"measurement": "mass density", "setting": "[4]; x1 = 0.7005", "value": "887.53 ± 0.16", "unit": "kg/m3"},
      {"measurement": "mass density", "setting": "[4]; x1 = 0.8002", "value": "936.46 ± 0.12", "unit": "kg/m3"},
      {"measurement": "mass density", "setting": "[4]; x1 = 0.9011", "value": "994.92 ± 0.07", "unit": "kg/m3"},
      {"measurement": "mass density", "setting": "[4]; x1 = 0.9504", "value": "1027.38 ± 0.06", "unit": "kg/m3"},
      {"measurement": "mass density", "setting": "[4]; x1 = 1", "value": "1063.04 ± 0.06", "unit": "kg/m3"}
    ]},
    {"smiles": "CC(C)CC(C)(C)C", "note": "[2,2,4-trimethylpentane] + COC(=O)OC", "values": [
      {"measurement": "refractive index", "setting": "[3]; x2 = 0", "value": "1.38898 ± 0.00014"},
      {"measurement": "mass density", "setting": "[4]; x2 = 0", "value": "688.18 ± 0.15", "unit": "kg/m3"}
    ]},
    {"smiles": "CCO", "note": "[ethanol]", "values": [
      {"measurement": "mass density", "setting": "[1]", "value": "785.33 ± 0.12", "unit": "kg/m3"},
      {"measurement": "refractive index", "setting": "[2]", "value": "1.35933 ± 0.00014"}
    ]},
    {"smiles": "CCO", "note": "[ethanol] + COC(=O)OC", "values": [
      {"measurement": "refractive index", "setting": "[3]; x2 = 0", "value": "1.35933 ± 0.00014"},
      {"measurement": "mass density", "setting": "[4]; x2 = 0", "value": "785.33 ± 0.12", "unit": "kg/m3"}
    ]}
  ]
}
